From the Kinase Knowledgebase extract (Sharma et al. 2016)

Legend:
Test in all cases: Enzyme Assay
PIK3CD (Human) = PIK3CD (Human) (UniProt O00329)
PIK3CB (Human) = PIK3CB (Human) (UniProt P42338)
PIK3CG (human) = PIK3CG (human) (UniProt P48736)
Chain of PIK3CG (human) (P48736 whole entry, looked up): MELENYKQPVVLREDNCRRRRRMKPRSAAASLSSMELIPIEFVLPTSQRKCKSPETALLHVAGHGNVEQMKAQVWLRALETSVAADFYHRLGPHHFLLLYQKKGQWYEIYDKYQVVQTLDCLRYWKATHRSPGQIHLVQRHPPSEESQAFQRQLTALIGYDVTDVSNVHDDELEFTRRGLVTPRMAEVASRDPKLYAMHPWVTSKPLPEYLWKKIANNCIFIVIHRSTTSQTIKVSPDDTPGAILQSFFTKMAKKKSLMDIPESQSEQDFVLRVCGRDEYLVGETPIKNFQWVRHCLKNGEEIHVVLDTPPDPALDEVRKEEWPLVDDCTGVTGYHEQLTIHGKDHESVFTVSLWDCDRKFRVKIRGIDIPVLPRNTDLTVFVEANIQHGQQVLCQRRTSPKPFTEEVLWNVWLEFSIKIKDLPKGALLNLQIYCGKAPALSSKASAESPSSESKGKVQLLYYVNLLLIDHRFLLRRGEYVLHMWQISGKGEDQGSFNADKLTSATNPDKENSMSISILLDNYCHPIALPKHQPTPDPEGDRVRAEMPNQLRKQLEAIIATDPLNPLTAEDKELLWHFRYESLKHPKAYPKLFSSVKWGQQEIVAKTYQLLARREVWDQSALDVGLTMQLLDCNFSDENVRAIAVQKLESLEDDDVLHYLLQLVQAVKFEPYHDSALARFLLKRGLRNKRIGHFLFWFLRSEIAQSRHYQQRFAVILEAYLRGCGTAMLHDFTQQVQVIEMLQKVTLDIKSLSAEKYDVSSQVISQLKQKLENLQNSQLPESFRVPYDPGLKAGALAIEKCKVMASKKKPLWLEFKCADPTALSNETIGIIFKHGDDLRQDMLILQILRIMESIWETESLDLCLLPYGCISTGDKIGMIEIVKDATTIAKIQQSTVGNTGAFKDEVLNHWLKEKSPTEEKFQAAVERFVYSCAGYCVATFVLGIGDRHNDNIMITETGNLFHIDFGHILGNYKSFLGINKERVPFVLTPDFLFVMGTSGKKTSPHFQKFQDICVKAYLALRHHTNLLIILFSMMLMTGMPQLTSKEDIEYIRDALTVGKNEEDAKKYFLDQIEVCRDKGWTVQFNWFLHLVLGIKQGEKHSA

Chain of PIK3CB (Human) (P42338 whole entry, looked up): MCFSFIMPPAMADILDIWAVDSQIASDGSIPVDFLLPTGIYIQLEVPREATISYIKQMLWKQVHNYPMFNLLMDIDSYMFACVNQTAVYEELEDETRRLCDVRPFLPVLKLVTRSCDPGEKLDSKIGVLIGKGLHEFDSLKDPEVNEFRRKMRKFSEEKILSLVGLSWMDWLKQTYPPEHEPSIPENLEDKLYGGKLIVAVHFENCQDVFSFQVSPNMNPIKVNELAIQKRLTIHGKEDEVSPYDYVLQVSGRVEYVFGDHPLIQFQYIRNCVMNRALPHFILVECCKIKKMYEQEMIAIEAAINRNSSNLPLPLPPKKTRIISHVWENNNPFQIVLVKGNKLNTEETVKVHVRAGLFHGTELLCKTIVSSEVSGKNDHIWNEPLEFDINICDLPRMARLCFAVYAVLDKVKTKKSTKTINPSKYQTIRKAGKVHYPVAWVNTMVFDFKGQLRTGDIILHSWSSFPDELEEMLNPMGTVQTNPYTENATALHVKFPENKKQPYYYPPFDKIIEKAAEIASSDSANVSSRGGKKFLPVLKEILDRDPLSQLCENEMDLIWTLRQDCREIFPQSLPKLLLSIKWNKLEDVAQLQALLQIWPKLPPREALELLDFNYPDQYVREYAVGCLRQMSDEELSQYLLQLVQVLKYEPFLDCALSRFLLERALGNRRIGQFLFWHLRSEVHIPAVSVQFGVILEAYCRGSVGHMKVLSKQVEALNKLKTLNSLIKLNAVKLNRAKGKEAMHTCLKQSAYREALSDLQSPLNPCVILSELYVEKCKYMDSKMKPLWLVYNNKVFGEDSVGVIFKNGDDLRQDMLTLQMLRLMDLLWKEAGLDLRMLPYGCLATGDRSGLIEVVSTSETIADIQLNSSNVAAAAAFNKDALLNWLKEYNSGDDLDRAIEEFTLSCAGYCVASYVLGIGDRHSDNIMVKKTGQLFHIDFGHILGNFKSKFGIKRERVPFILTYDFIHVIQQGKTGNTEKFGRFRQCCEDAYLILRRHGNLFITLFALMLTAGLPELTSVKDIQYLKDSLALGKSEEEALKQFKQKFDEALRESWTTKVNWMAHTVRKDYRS
Chain of PIK3CD (Human) (O00329 whole entry, looked up): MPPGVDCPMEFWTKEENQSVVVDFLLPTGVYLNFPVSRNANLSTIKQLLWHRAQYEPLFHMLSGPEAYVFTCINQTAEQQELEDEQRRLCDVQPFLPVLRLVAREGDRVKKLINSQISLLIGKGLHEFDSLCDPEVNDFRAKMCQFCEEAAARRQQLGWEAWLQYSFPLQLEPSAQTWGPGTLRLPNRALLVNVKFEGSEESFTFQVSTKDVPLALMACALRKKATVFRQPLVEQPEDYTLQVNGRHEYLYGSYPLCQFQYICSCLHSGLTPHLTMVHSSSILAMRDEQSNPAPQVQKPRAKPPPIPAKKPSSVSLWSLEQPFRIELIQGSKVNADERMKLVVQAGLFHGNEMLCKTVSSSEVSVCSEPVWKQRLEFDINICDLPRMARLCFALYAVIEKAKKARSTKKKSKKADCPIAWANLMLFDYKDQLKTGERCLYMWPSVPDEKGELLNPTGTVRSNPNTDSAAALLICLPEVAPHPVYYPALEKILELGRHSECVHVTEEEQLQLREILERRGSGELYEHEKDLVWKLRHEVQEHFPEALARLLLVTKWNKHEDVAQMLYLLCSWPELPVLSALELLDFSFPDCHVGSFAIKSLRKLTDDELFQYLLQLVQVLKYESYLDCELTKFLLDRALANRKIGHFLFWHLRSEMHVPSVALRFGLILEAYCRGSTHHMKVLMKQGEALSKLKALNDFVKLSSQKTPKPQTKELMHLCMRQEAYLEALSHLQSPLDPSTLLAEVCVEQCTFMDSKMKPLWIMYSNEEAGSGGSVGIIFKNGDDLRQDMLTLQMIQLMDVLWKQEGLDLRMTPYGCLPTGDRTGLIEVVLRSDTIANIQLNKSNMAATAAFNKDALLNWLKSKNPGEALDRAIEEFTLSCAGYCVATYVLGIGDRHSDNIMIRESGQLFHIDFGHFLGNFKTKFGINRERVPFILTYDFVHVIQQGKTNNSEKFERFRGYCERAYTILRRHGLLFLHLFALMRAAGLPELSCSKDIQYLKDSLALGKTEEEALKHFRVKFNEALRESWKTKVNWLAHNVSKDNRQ

| SMILES | IC50 (PIK3CD (Human)) | IC50 (PIK3CB (Human)) | IC50 (PIK3CG (human)) |
| --- | --- | --- | --- |
| C[C@H](Nc1nc(N)nc(C(F)F)c1C#N)c1nc2c(Cl)cc(F)cc2c(=O)n1-c1cnc(N)cn1 | 340 nM | 200 nM | > 10000 nM |
| C[C@H](Nc1ncnc2[nH]nnc12)c1nc2c(F)cccc2c(=O)n1-c1cnc(N)cn1 | – | > 10000 nM | > 10000 nM |
| C[C@H](Nc1nc(N)nc(N)c1Cl)c1nc2c(Cl)ccc(Cl)c2c(=O)n1-c1cnc(N)cn1 | – | – | > 10000 nM |
| C[C@H](Nc1nc(N)nc(N)c1Cl)c1nc2c(F)ccc(Cl)c2c(=O)n1-c1cnc(N)cn1 | – | – | > 10000 nM |
| C[C@H](Nc1nc(N)nc(N)c1Cl)c1nc2c(Cl)cc(F)cc2c(=O)n1-c1cnc(N)cn1 | 500 nM | 570 nM | > 10000 nM |
| Nc1cnc(-n2c([C@@H](Nc3nc(N)nc(N)c3Cl)C3CC3)nc3cccc(Cl)c3c2=O)cn1 | – | – | > 10000 nM |
| C[C@H](Nc1ncnc(N)c1Cl)c1nc2cccc(Cl)c2c(=O)n1-c1cnc(N)cn1 | 54 nM | 360 nM | > 10000 nM |
| C[C@H](Nc1nc(N)nc(N)c1Cl)c1nc2c(F)cc(F)cc2c(=O)n1-c1cnc(N)cn1 | 780 nM | 530 nM | > 10000 nM |
| Nc1cnc(-n2c([C@@H](Nc3ncnc(N)c3Cl)C3CC3)nc3c(Cl)ccc(Cl)c3c2=O)cn1 | 26 nM | 1100 nM | > 10000 nM |
| C[C@H](Nc1ncnc(N)c1C#N)c1nc2c(F)ccc(Cl)c2c(=O)n1-c1cnc(N)cn1 | – | – | > 10000 nM |
| C[C@H](Nc1ncnc2occc12)c1nc2c(F)ccc(Cl)c2c(=O)n1-c1cnc(N)cn1 | – | – | > 10000 nM |
| Nc1cnc(-n2c([C@@H](Nc3ncnc(N)c3Cl)C3CC3)nc3cccc(Cl)c3c2=O)cn1 | – | 720 nM | > 10000 nM |
| Nc1cnc(-n2c([C@@H](Nc3nc(N)nc(N)c3Cl)C3CC3)nc3c(Cl)ccc(Cl)c3c2=O)cn1 | – | – | > 10000 nM |
